Values joined by “and” are separate entries in the source; they are usually repeats but may differ in a detail not shown here. Equal entries are not always repeated.
Legend:
[1] = system: PC12 rat pheochromocytoma cells; experiment: Neurite outgrowth activity in PC12 rat pheochromocytoma assay; type: cell-based; conditions: PC-12 cells; active concentration range
Description: For example, compounds may be tested to determine their neurotrophic activity using the method described by Lyons et al., Proc. Natl. Acad. Sci., 91:3191-3195 (1994). In this rat pheochromocytoma assay for neurite outgrowth, PC12 rat pheochromocytoma cells are maintained at 37° C. and 5% CO2 in Dulbecco's modified Eagle's medium (DMEM) supplemented with 10% heat-inactivated horse serum and 5% heat-inactivated fetal bovine serum. Cells are then plated, coated at 10^5 per 35 mm culture well with rat tail collagen at […], and allowed to attach. Medium is then replaced with DMEM supplemented with 2% horse serum, 1% fetal bovine serum, nerve growth factor (NGF), and/or varying concentrations of test compounds. The control cultures are administered NGF without any of the test compounds.

FKBP12 [2] = target: T1, FKBP12 (Homo sapiens, UniProt P62942); experiment: Binding to FKBP by microcalorimetry
Description: Binding of compounds to FKBP may be measured directly using microcalorimetry. Calorimetric titrations are carried out using the MCS-ITC instrument (MicroCal Inc., Northhampton, Mass.). The titrations may be conducted as follows. Protein dialysate is degassed for 15 minutes using MicroCal equipment. Stock inhibitor solution is added to co-solvent (typically DMSO) and degassed dialysate, followed by brief sonication, to produce the final inhibitor solutions to be used in the titrations. Final inhibitor solutions are in the concentration range 10 to 80 μM. Dialyzed protein is added to co-solvent and degassed dialysate to produce FKBP12 solutions in the concentration range 200 to 1600 μM. As both solutions are prepared using degassed dialysate, no additional degassing of the solutions is performed. Co-solvent is added to the protein solutions to maintain a fixed co-solvent concentration throughout the course of the titration. Protein is titrated into inhibitor using a 125-μL injection syringe. The titrations are conducted with the ligand in the cell due to low solubility of inhibitors. Typically, a preliminary 2-μL injection is followed by fifteen 8-μL injections made at varying injection intervals. A full set of dilution controls is conducted for each titration. An appropriate volume of co-solvent is added to degassed dialysate to produce the buffered co-solvent solution used to obtain heats of dilution of the reactants. After correcting for the heats of dilution and deletion of the preliminary injection, the titration results are fitted using the “One Set of Sites Model” in the ORIGIN software package supplied with the instrument.

FKBP12 [3] = target: T1, FKBP12; experiment: Rotamase inhibition assay (N-succinyl-Ala-Ala-Pro-Phe-p-nitroanilide, chymotrypsin-coupled); type: biochemical; conditions: Table 1; read-out: Rotamase Ki(app)
Description: In the rotamase inhibition assay, isomerization of an artificial substrate N-succinyl-Ala-Ala-Pro-Phe-p-nitroanilide is followed spectrophotometrically. The assay includes the cis form of the substrate, FKBP12, the compound being tested, and chymotrypsin. Chymotrypsin is able to cleave p-nitroaniline from the trans form of the substrate, but not from the cis form. Release of p-nitroaniline is measured spectrophotometrically. Using this assay, various amounts of the FKBP rotamase-inhibiting compounds of formula (I) were added to cis-N-succinyl-alanine-alanine-proline-phenylalanine-para-nitroaniline (BACHEM, 3132 Kashiwa Street, Torrance, Calif. 90505) in the presence of FKBP12 and chymotrypsin. Spectrophotometric measurements of p-nitroaniline concentrations allowed estimation of the apparent Ki values, which are provided in Table 1 below.

FKBP12 [4] = target: T1, FKBP12; experiment: Affinity for FKBP-12 (Ki), succinyl-Ala-Leu-Pro-Phe-pNA chymotrypsin-coupled assay; type: biochemical; design: key to FKBP12 inhibition (in Kiapps column): NI: no inhibition; NSI: no significant inhibition; conditions: for Ki: Table 2, read-out: FKBP12 Kiapps
Description: In a quartz cuvette, a final 1 mL buffer concentration was reached (50 mM Hepes, 100 mM NaCl, pH 8.0). Within this final reaction volume, 3.5 μL […] FKBP-12 (in 50 mM Hepes, 100 mM NaCl, pH 8.0) and 10 μL test compound in DMSO were added. The reaction was initiated by adding 10 μL chymotrypsin (100 mg/mL in 1 mM HCl) followed by 5 μL (1-20 mM succinyl-Ala-Leu-Pro-Phe-pNA in 240 mM LiCl/TFE).
The absorbance at 390 nm versus time was monitored for up to 400 seconds. Rate constants were determined from the absorbance versus time plots generated.

[5] = Solubility noted in FKBP12 assay table; type: physicochemical; conditions: read-out: Sol (solubility)

T1 sequence (P62942 whole entry, species assumed): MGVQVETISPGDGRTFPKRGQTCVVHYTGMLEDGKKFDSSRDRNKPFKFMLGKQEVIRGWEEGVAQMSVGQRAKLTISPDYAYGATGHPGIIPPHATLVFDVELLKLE

| Kd (FKBP12 [2]) [µM] | Ki (FKBP12 [3]) [µM] | Ki (FKBP12 [4]) | FKBP12 inhibition (in Kiapps column) (FKBP12 [4]; at 1 μM) | solubility [5] [µM] | SMILES | Neurite-Outgrowth Activity (PC-12) [1] [µM] |
| --- | --- | --- | --- | --- | --- | --- |
| 4.5 | 2.79 | 2.79 µM and 1.1 µM |  |  | CCC(C)(C)NS(=O)(=O)N1CCC[C@H]1C(=O)OCCCc1cccnc1 [Compound 31, 1-(1,1-Dimethyl-propylsulfamoyl)-pyrrolidine-2S-carboxylic acid 3-pyridin-3-yl-propyl ester] | 0.001 to 1 |
| 1.2 | 0.2 | 0.2 µM and 0.18 µM |  |  | COc1cc(NS(=O)(=O)N2CCCC[C@H]2C(=O)OCCCCc2ccccc2)cc(OC)c1OC [Compound 25, 1-(3,4,5-Trimethoxy-phenylsulfamoyl)-piperidine-2S-carboxylic acid 4-phenyl-butyl ester] | 0.001 to 1 |
| 14 |  | 3.96 µM |  |  | O=C(OCCCc1cccnc1)[C@@H]1CCCN1S(=O)(=O)Nc1ccccc1 [Compound 33, 1-Phenylsulfamoyl-pyrrolidine-2S-carboxylic acid 3-pyridin-3-yl-propyl ester] | 0.001 to 1 |
|  |  |  | NI | < 30 | COc1cc(NS(=O)(=O)N2[C@@H]3CC[C@@H](C3)[C@H]2C(=O)OCCCCc2ccccc2)cc(OC)c1OC [Compound 84, 2-(3,4,5-Trimethoxy-phenylsulfamoyl)-2-aza-bicyclo[2.2.1]heptane-exo-3-carboxylic acid 4-phenyl-butyl ester] |  |

— patent US6544987B2, “Compounds, compositions, and methods for stimulating neuronal growth and elongation” (Pfizer Inc., priority 1999, dated 2003)
